The source of these data is PubChem BioAssay AID248 (DTP/NCI, 2004).

This assay concerns L1210 leukemia ip in BDF1 mice, survival T/C. The assay is described as follows: NCI In Vivo Anticancer Drug Screen. Data for tumor model L1210 Leukemia (intraperitoneal) in B6D2F1 (BDF1) mice. The following applies: endpoint: mean survival time, higher = longer survival. A digest of the protocol:
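Mice bearing the transplanted tumor received compound or vehicle. Survival of the treated group was divided by that of the vehicle-treated control group to give the ratio.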

[1] abbreviates: dose: 100.0 mg/kg/injection, schedule: Q01DX001 (ip), vehicle: saline.
Setting [2] is: dose: 200.0 mg/kg/injection, schedule: Q01DX001 (ip), vehicle: saline.
Setting [3] is: dose: 400.0 mg/kg/injection, schedule: Q01DX001 (ip), vehicle: saline.
[4] abbreviates: dose: 100.0 mg/kg/injection, schedule: Q04DX003 (ip), vehicle: Klucel (hydroxypropylcellulose) (HPC).
The mark [5] stands for this setting: dose: 200.0 mg/kg/injection, schedule: Q04DX003 (ip), vehicle: Klucel (hydroxypropylcellulose) (HPC).
The mark [6] stands for this setting: dose: 100.0 mg/kg/injection, schedule: Q04DX003 (ip), vehicle: saline with Tween-80.
[7] abbreviates: dose: 200.0 mg/kg/injection, schedule: Q04DX003 (ip), vehicle: saline with Tween-80.
[8] abbreviates: dose: 400.0 mg/kg/injection, schedule: Q04DX003 (ip), vehicle: saline with Tween-80.
Setting [9] is: dose: 100.0 mg/kg/injection, schedule: Q04DX002 (ip), vehicle: Klucel (hydroxypropylcellulose) (HPC).
[10] abbreviates: dose: 50.0 mg/kg/injection, schedule: Q01DX001 (ip), vehicle: carboxymethylcellulose (CMC).
The mark [11] stands for this setting: dose: 100.0 mg/kg/injection, schedule: Q01DX001 (ip), vehicle: carboxymethylcellulose (CMC).
[12] abbreviates: dose: 200.0 mg/kg/injection, schedule: Q01DX001 (ip), vehicle: carboxymethylcellulose (CMC).
The mark [13] stands for this setting: dose: 100.0 mg/kg/injection, schedule: Q01DX009 (ip), vehicle: Klucel (hydroxypropylcellulose) (HPC).
Where [14] appears, read: dose: 200.0 mg/kg/injection, schedule: Q01DX009 (ip), vehicle: Klucel (hydroxypropylcellulose) (HPC).
Where [15] appears, read: dose: 400.0 mg/kg/injection, schedule: Q01DX009 (ip), vehicle: Klucel (hydroxypropylcellulose) (HPC).

Molecules are shown by their SMILES. Several values for one entry are separate records, joined by “and”; a condition that tells them apart may be missing. Equal entries are not always repeated. Inconclusive results and toxic doses are left out.

Consider `CC(=O)OC1COC(n2cnc3c(=O)[nH]c(N)nc32)C(OC(C)=O)C1OC(C)=O` (centres undefined), for which the T/C was 104 % of control (dose: 50.0 mg/kg/injection, schedule: Q01DX001 (ip), vehicle: saline); 104 % of control under setting [1]; 95 % of control under setting [2]; 93 % of control under setting [3].

Turning to `N=C(N)SCCN1CCCCC1`, the T/C reads like this: (dose: 75.0 mg/kg/injection, schedule: Q01DX001 (ip), vehicle: acetone) 102 % of control; (dose: 150.0 mg/kg/injection, schedule: Q01DX001 (ip), vehicle: acetone) 100 % of control.

With `Nc1nc2nc(N=Nc3ccc(C(=O)O)c(O)c3)[nH]c2c(=O)[nH]1`, the T/C is, setting by setting: under setting [4], 99 % of control; under setting [5], 88 % of control.

On to `COC1CCC(NC(=O)N(CCCl)N=O)CC1` (centres undefined), for which the T/C was 106 % of control (dose: 3.5 mg/kg/injection, schedule: Q01DX001 (ip), vehicle: saline with Tween-80); 110 % of control (dose: 5.0 mg/kg/injection, schedule: Q01DX001 (ip), vehicle: saline with Tween-80); 124 % of control (dose: 8.0 mg/kg/injection, schedule: Q01DX001 (ip), vehicle: saline with Tween-80); 155 % of control and 266 % of control (dose: 16.0 mg/kg/injection, schedule: Q01DX001 (ip), vehicle: saline with Tween-80); 221 % of control (dose: 18.0 mg/kg/injection, schedule: Q01DX001 (ip), vehicle: saline with Tween-80); 592 % of control (dose: 24.0 mg/kg/injection, schedule: Q01DX001 (ip), vehicle: saline with Tween-80). Also, the T/C is 302 % of control (dose: 26.0 mg/kg/injection, schedule: Q01DX001 (ip), vehicle: saline with Tween-80); 404 % of control (dose: 35.0 mg/kg/injection, schedule: Q01DX001 (ip), vehicle: saline with Tween-80); 340 % of control (dose: 40.0 mg/kg/injection, schedule: Q01DX001 (ip), vehicle: saline with Tween-80); 193 % of control (dose: 53.0 mg/kg/injection, schedule: Q01DX001 (ip), vehicle: saline with Tween-80); 294 % of control (dose: 60.0 mg/kg/injection, schedule: Q01DX001 (ip), vehicle: saline with Tween-80).

For the compound `CCN(CC)C(=O)Cn1ccc(O)cc1=O`, the T/C under setting [6] was 109 % of control, the T/C under setting [7] was 98 % of control and the T/C under setting [8] is 104 % of control.

`O=C1C(O)=C(c2ccc(O)cc2)C(=O)C(O)=C1c1ccc(O)cc1`: the T/C was 88 % of control (dose: 25.0 mg/kg/injection, schedule: Q04DX002 (ip), vehicle: Klucel (hydroxypropylcellulose) (HPC)); 105 % of control (dose: 25.0 mg/kg/injection, schedule: Q04DX002 (oral), vehicle: saline with Tween-80); 95 % of control (dose: 50.0 mg/kg/injection, schedule: Q04DX002 (ip), vehicle: Klucel (hydroxypropylcellulose) (HPC)); 98 % of control (dose: 50.0 mg/kg/injection, schedule: Q04DX002 (oral), vehicle: saline with Tween-80); 103 % of control under setting [9]; 112 % of control (dose: 100.0 mg/kg/injection, schedule: Q04DX002 (oral), vehicle: saline with Tween-80).

With `O=C1c2ccccc2-c2cc(F)cc(F)c21`, the T/C is 104 % of control under setting [10]; 102 % of control under setting [11]; 102 % of control under setting [12]; 102 % of control (dose: 400.0 mg/kg/injection, schedule: Q01DX001 (ip), vehicle: carboxymethylcellulose (CMC)).

As for `COc1ccc(OCCC(=O)O)cc1`, the T/C under setting [1] was 90 % of control and the T/C under setting [2] is 93 % of control.

As to `Cc1cccc(Nc2cc(N)nc(N)n2)c1`, under “dose: 50.0 mg/kg/injection, schedule: Q01DX Z (ip), vehicle: methylcellulose (MC)”, the T/C is 96 % of control.

As for `CN(C)C=Nc1cc2c3c(c1)CCCN3CCC2`, the T/C runs as follows: (dose: 12.5 mg/kg/injection, schedule: Q01DX001 (ip), vehicle: saline) 103 % of control; (dose: 25.0 mg/kg/injection, schedule: Q01DX001 (ip), vehicle: saline) 105 % of control.

Take `CCC(=O)Nc1ccc(C)cc1C`: the T/C runs as follows: under setting [13], 92 % of control; under setting [4], 97 % of control; under setting [14], 94 % of control; under setting [5], 107 % of control; (dose: 400.0 mg/kg/injection, schedule: Q04DX003 (ip), vehicle: Klucel (hydroxypropylcellulose) (HPC)) 96 % of control.

On to `Cc1ccc(N2C(=O)CSC2=S)cc1F`, for which the T/C is, setting by setting: under setting [9], 96 % of control; (dose: 200.0 mg/kg/injection, schedule: Q04DX002 (ip), vehicle: Klucel (hydroxypropylcellulose) (HPC)) 104 % of control; (dose: 400.0 mg/kg/injection, schedule: Q04DX002 (ip), vehicle: Klucel (hydroxypropylcellulose) (HPC)) 101 % of control.

Turning to `O=C(O)C(CCCN1C(=O)c2ccccc2C1=O)N1C(=O)c2ccccc2C1=O` (centres undefined), the T/C is 93 % of control under setting [13], 94 % of control under setting [14] and 98 % of control under setting [15].

As to `CCCCCCOP(=O)(N1CC1C)N1CC1C` (centres undefined), the T/C was 102 % of control (dose: 12.0 mg/kg/injection, schedule: Q01DX Z (ip), vehicle: saline); 103 % of control (dose: 25.0 mg/kg/injection, schedule: Q01DX Z (ip), vehicle: saline); 102 % of control and 111 % of control (dose: 50.0 mg/kg/injection, schedule: Q01DX Z (ip), vehicle: saline); 109 % of control (dose: 100.0 mg/kg/injection, schedule: Q01DX Z (ip), vehicle: saline); 107 % of control (dose: 200.0 mg/kg/injection, schedule: Q01DX Z (ip), vehicle: saline); 106 % of control (dose: 400.0 mg/kg/injection, schedule: Q01DX Z (ip), vehicle: saline).

With `C=C(Cl)CSc1ccccc1`, the T/C under setting [1] was 103 % of control, the T/C under setting [2] is 103 % of control and the T/C under setting [3] was 105 % of control.

As to `FC(F)(F)c1cccc(NC(=S)NCc2ccco2)c1`, the T/C runs as follows: under setting [13], 90 % of control; under setting [14], 93 % of control; under setting [15], 96 % of control.

On to `O=[N+]([O-])c1ccc(S(=O)(=O)Cl)c(Cl)c1`, for which the T/C runs as follows: under setting [1], 100 % of control; under setting [2], 96 % of control; under setting [3], 92 % of control.

Consider `NC(CSS(=O)(=O)O)=NCCCCCN=C(N)CSS(=O)(=O)O`, for which the T/C reads like this: (dose: 12.5 mg/kg/injection, schedule: Q04DX003 (ip), vehicle: saline with Tween-80) 108 % of control; (dose: 25.0 mg/kg/injection, schedule: Q04DX003 (ip), vehicle: saline with Tween-80) 102 % of control; (dose: 50.0 mg/kg/injection, schedule: Q04DX003 (ip), vehicle: saline with Tween-80) 96 % of control.

Turning to `O=c1ccc2ccccc2[nH]1`, the T/C (dose: 100.0 mg/kg/injection, schedule: Q01DX001 (ip), vehicle: Klucel (hydroxypropylcellulose) (HPC)) was 108 % of control; the T/C (dose: 100.0 mg/kg/injection, schedule: Q01DX001 (ip), vehicle: other) is 105 % of control; the T/C (dose: 200.0 mg/kg/injection, schedule: Q01DX001 (ip), vehicle: Klucel (hydroxypropylcellulose) (HPC)) is 111 % of control; the T/C (dose: 200.0 mg/kg/injection, schedule: Q01DX001 (ip), vehicle: other) is 92 % of control; the T/C (dose: 400.0 mg/kg/injection, schedule: Q01DX001 (ip), vehicle: Klucel (hydroxypropylcellulose) (HPC)) was 113 % of control.

In the case of `Cn1c(=O)c2[nH]c(CCCc3nc4c([nH]3)c(=O)n(C)c(=O)n4C)nc2n(C)c1=O`, the T/C by setting is: (dose: 25.0 mg/kg/injection, schedule: Q01DX001 (ip), vehicle: carboxymethylcellulose (CMC)) 93 % of control; under setting [10], 105 % of control; under setting [11], 98 % of control; under setting [12], 101 % of control.

With `CC1N=C(c2ccccc2)C(c2ccccc2)=NC1C` (centres undefined), the T/C runs as follows: under setting [6], 94 % of control; under setting [7], 101 % of control; under setting [8], 101 % of control.

For the compound `CCCc1nc2c(nc1C)C(=O)C=CC2=O`, the T/C (dose: 9.5 mg/kg/injection, schedule: Q01DX001 (ip), vehicle: other) was 98 % of control.
